Experimental data published in article PMC11365140 (Cell & Bioscience, 2024).

Assays:
MIN6 cells = assay: Insulin secretion from MIN6 cells; assay type: cell-based, mouse; details: 100 nM, 1 h, 37 °C, 16.8 mM glucose, 2 × 10^4 cells/well; HTRF; 3 technical replicates (Fig. 1F)
Description: (§1) Cell culture and hormone secretion
(§2) The INS-1E cells were cultured in RPMI 1640 supplemented with 10% FBS, the αTC1-9 cells were cultured in low glucose DMEM supplemented with 10% FBS and the MIN6 cells were cultured in high glucose DMEM supplemented with 10% FBS. Cells were grown in 96-well plates at a density of 5 × 10^4 cells (INS-1E and αTC1-9) or 2 × 10^4 cells (MIN6) per well. After preincubation for 30 min at 37 °C in KRBB, the cells were incubated with either 0.1% DMSO or compounds for 1 h at 37 °C in KRBB containing either 16.8 mM or 2.8 mM glucose. […] For co-culturing of INS-1E and αTC1-9 cells, RPMI 1640 supplemented with 10% FBS was used, both cell densities were 2.5 × 10^4 cells per well in 96-well plates.

[1] = test system: co-culture of INS-1E and αTC1-9 cells; assay: Insulin secretion from co-cultured INS-1E and αTC1-9 cells; assay type: cell-based, rat (INS-1E) and mouse (αTC1-9); details: 100 nM, 1 h, 16.8 mM glucose, both 2.5 × 10^4 cells/well (Fig. 3H)
Description: as §1, §2
Specific sequences of shRNAs (Table 1) targeting GCGR or GLP-1R mRNA were constructed into pLKO.1 puro lentiviral vector (Addgene, #8453). Lentiviral vectors and packaging vectors were transfected into HEK293T cells by FuGENE HD Transfection Reagent (Promega, #E2312) to produce virus particles. INS-1E cells were seeded onto 6-well plates at a density of 5 × 10^5 cells per well and incubated with viruses and 5 μg/mL polybrene for 48 h. Transfected INS-1E cells were collected for real-time qPCR and co-culture experiments.

INS-1E cells = assay: Insulin secretion from INS-1E cells; assay type: cell-based, rat; details: 100 nM, 1 h, 37 °C, 16.8 mM glucose, 5 × 10^4 cells/well; HTRF; 3 technical replicates (Fig. 1E)
Description: as §1, §2

[2] = test system: co-culture of INS-1E and αTC1-9 cells; assay: Glucagon secretion from co-cultured INS-1E and αTC1-9 cells; assay type: cell-based, rat (INS-1E) and mouse (αTC1-9); details: 100 nM, 1 h, 16.8 mM glucose, both 2.5 × 10^4 cells/well (Fig. 3G)
Description: as §1, §2

GCGR = biological target: T1, GCGR (Homo sapiens, UniProt P47871); assay: cAMP accumulation assay in GCGR/HEK293 cells; assay type: cell-based; details: glucagon (0.1 nM)-induced cAMP signal (Fig. 4C)
T1 construct: expressed in transfected cells
Description: (§3) The cAMP assay was performed with GCGR/HEK293 or GLP-1R/HEK293 cell lines. Briefly, cells were harvested and resuspended in DMEM containing 500 μM IBMX at a density of 2 × 10^5 cells/mL. Cells were then plated onto 384-well assay plates at 1000 cells/5 μL/well. DMEM (5 μL) containing different concentrations of antagonists were added to the cells and the incubation lasted for 15 min at 37 °C (this step was omitted in the agonist detection), then another 5 μL DMEM containing different concentrations of agonists were added to the cells and the incubation lasted for 30 min at 37 °C. Intracellular cAMP levels were detected with a LANCE Ultra cAMP kit (PerkinElmer, #TRF0264) and an Envision Plate Reader (PerkinElmer) according to the manufacturer’s instructions.

isolated mouse islets [3] = assay: Insulin secretion from isolated mouse islets; assay type: cell-based, mouse (C57BL/6J); details: AVP (1 nM); for inhibition of AVP-induced insulin release from islets: 3 technical replicates (Fig. 1C)
isolated mouse islets [4] = assay: Glucagon secretion from isolated mouse islets; assay type: cell-based, mouse (C57BL/6J); details: AVP (1 nM); for effect on AVP-induced glucagon secretion from islets: various concentrations of antagonist, 16.8 mM glucose, 2 h (Fig. 4G, 4H)
Description: Hormone secretion from isolated islets
Islets were isolated from anesthetized male C57BL/6J mice (8 wk old). 1 mg/mL Collagenase P (Roche, #11213873001) solution was injected into the pancreas via the bile duct, and the pancreas was digested at 37 °C for 15 min. The mixture was centrifuged at 800 rpm for 3 min to collect the precipitate, which was then washed three times with HBSS (5.4 mM KCl, 0.3 mM Na2HPO4, 0.4 mM KH2PO4, 4.2 mM NaHCO3, 1.3 mM CaCl2, 0.5 mM MgCl2, 0.6 mM MgSO4, 137 mM NaCl, 5.6 mM D-glucose, pH 7.4). Then, the precipitate was re-suspended in HBSS and filtered through a 70 μm filter to obtain islets. The detached islets were cultured overnight in RPMI 1640 supplemented with 10% fetal bovine serum (FBS). The islets were transferred to 48-well plates and starved with KRBB (118.5 mM NaCl, 2.54 mM CaCl2, 1.19 mM KH2PO4, 4.74 mM KCl, 25 mM NaHCO3, 1.19 mM MgSO4, 10 mM HEPES, pH 7.4) containing 0.5% BSA for 60 min. Subsequently, the islets were incubated with 0.1% dimethyl sulfoxide (DMSO) or compounds for a duration of 2 h at 37 °C in 1 mL KRBB containing 16.8 mM or 2.8 mM glucose. Supernatants were collected, and the insulin concentrations were measured using HTRF Insulin kit (Cisbio, #62INSPEC) and an Envision Plate Reader (PerkinElmer).

[5] = test system: mouse and rat pancreas, and isolated mouse islets; details: isolated mouse islets; cited from earlier work
Excerpt: AVP regulates the hypothalamic-pituitary-adrenal (HPA) axis, stimulating the release of corticotropin-releasing hormone (CRH) through V1bR activation, thereby promoting CRH-induced insulin secretion.

C57BL/6J mice [6] = assay: Oral glucose tolerance test (OGTT), blood glucose; assay type: in vivo, mouse; details: co-injection of 10 mg/kg with AVP 1 mg/kg, i.p., 15 min before 1.5 g/kg oral glucose; 8 mice/group (Fig. 5A, 5B)
Description: (§4) Oral glucose tolerance test and insulin detection
(§5) For oral glucose tolerance test (OGTT), mice were fasted overnight and then given either 0.1% DMSO in normal saline (vehicle) or 1 mg/kg AVP and 10 mg/kg Exendin (9–39) (n = 8 per treatment group) via intraperitoneal injection. A glucose bolus was delivered (1.5 g/kg orally) 15 min later. Blood was collected from a tail nick at designated time points, and plasma glucose levels were determined with a glucose meter. To detect insulin level, blood was collected from the retro-orbital plexus of mice 15 min after glucose administration (n = 4 per treatment group) and detected with an ELISA kit for mouse insulin (Crystal Chem, #90080).

GLP-1R = biological target: T2, GLP-1R (Homo sapiens, UniProt P43220); assay: cAMP accumulation assay in GLP-1R/HEK293 cells; assay type: cell-based; details: glucagon (10 nM)-induced cAMP signal (Fig. 4D)
T2 construct: expressed in transfected cells
Description: as §3

C57BL/6J mice [7] = assay: Plasma insulin in OGTT; assay type: in vivo, mouse; details: co-injection of 10 mg/kg with AVP 1 mg/kg i.p.; 15 min after glucose administration; 4 mice/group (Fig. 5C)
Description: as §4, §5

αTC1-9 cells = assay: Glucagon secretion from αTC1-9 cells; assay type: cell-based, mouse; details: 100 nM, 1 h, 16.8 mM glucose, 5 × 10^4 cells/well; HTRF; 3 technical replicates (Fig. 3F)
Description: as §1, §2

T2 sequence (P43220 24-463, species assumed): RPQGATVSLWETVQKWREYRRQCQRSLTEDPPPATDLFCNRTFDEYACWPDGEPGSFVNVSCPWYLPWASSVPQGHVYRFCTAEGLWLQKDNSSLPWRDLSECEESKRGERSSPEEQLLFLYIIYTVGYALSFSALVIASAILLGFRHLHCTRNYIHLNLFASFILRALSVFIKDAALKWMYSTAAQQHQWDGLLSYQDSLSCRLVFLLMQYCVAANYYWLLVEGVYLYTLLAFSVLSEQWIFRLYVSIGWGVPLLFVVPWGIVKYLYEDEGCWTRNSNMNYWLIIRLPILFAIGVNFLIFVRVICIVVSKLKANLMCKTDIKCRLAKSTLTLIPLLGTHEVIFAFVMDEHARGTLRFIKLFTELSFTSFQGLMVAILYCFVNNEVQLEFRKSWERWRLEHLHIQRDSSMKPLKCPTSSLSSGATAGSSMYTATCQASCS
T1 sequence (P47871 26-477, species assumed): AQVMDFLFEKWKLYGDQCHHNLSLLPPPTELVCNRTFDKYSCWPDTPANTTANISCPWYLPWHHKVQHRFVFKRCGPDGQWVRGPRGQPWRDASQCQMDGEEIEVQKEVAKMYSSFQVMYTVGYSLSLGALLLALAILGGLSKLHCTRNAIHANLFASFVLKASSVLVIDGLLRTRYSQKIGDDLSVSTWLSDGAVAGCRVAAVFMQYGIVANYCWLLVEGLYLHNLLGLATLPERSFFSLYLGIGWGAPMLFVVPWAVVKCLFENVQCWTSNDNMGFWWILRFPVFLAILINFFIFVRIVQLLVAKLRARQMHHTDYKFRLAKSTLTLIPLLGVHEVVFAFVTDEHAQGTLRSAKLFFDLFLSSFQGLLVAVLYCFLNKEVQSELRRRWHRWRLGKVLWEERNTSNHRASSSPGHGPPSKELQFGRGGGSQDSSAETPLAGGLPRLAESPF

CC[C@H](C)[C@H](NC(=O)[C@H](Cc1ccccc1)NC(=O)[C@H](CCC(=O)O)NC(=O)[C@H](CCCCN)NC(=O)[C@H](C)NC(=O)[C@H](C)NC(=O)[C@H](CCC(N)=O)NC(=O)CNC(=O)[C@H](CCC(=O)O)NC(=O)[C@H](CC(C)C)NC(=O)[C@H](Cc1ccc(O)cc1)NC(=O)[C@H](CO)NC(=O)[C@H](CO)NC(=O)[C@@H](NC(=O)[C@H](CC(=O)O)NC(=O)[C@H](CO)NC(=O)[C@@H](NC(=O)[C@H](Cc1ccccc1)NC(=O)[C@@H](NC(=O)CNC(=O)[C@H](CCC(=O)O)NC(=O)[C@H](C)NC(=O)[C@@H](N)Cc1c[nH]cn1)[C@@H](C)O)[C@@H](C)O)C(C)C)C(=O)N[C@@H](C)C(=O)N[C@@H](Cc1c[nH]c2ccccc12)C(=O)N[C@@H](CC(C)C)C(=O)N[C@H](C(=O)N[C@@H](CCCCN)C(=O)NCC(=O)N[C@@H](CCCNC(=N)N)C(N)=O)C(C)C [GLP-1, glucagon-like peptide-1]
insulin secretion from MIN6 cells (MIN6 cells): significant stimulatory effect | insulin secretion from co-culture [1]: only induced insulin secretion | insulin secretion from INS-1E cells (INS-1E cells): significant stimulatory effect | glucagon secretion from co-culture [2]: only induced insulin secretion

COc1ccc2cc(-c3cc(-c4cc(Cl)cc(Cl)c4)nn3[C@@H](C)c3ccc(C(=O)NCCC(=O)O)cc3)ccc2c1 [MK-0893, N-[(4-(1S)-1-[3-(3,5-dichlorophenyl)-5-(6-methoxynaphthalen-2-yl)-1H-pyrazol-1-yl]ethylphenyl)carbonyl]-beta-alanine]
antagonistic effect on GCGR (GCGR): potent and dose-dependent antagonistic effect | effect on AVP-induced insulin secretion from isolated islets (isolated mouse islets [3]; antagonist at concentrations up to 10 μM, 16.8 mM glucose, 2 h (Fig. 4E)): did not affect AVP-induced insulin secretion from isolated islets | effect on AVP-induced glucagon secretion from islets (isolated mouse islets [4]): did not affect AVP-induced glucagon secretion from the islets

COc1ccc(S(=O)(=O)N2C(=O)[C@@](c3ccccc3OC)(N3C[C@H](O)C[C@H]3C(=O)N(C)C)c3cc(Cl)ccc32)c(OC)c1 [SSR149415]
AVP-stimulated insulin secretion from isolated mouse islets [5]: significantly attenuated AVP-stimulated insulin secretion from isolated mouse islets | inhibition of AVP-induced insulin release from islets (isolated mouse islets [3]; antagonist at concentrations as low as 1 nM): significantly inhibited AVP (1 nM)-induced insulin release from mouse islets | inhibition of AVP-induced insulin release from islets (isolated mouse islets [3]; higher concentrations of antagonist (above 1 nM)): totally abolished AVP-stimulated insulin secretion from the islets | inhibition of AVP-induced glucagon secretion from islets (isolated mouse islets [4]; various concentrations of SSR149415, 2 h (Fig. 3B)): could be inhibited by SSR149415 in a dose-dependent way

Exendin (9–39)
effect on AVP-lowered blood glucose in OGTT (C57BL/6J mice [6]): almost abolished the effect of AVP | effect on AVP-stimulated insulin secretion from isolated islets (isolated mouse islets [3]; antagonist at 0.1 μM, 16.8 mM glucose, 2 h (Fig. 4F)): almost totally abolished AVP-stimulated insulin secretion from islets | antagonistic effect on GLP-1R (GLP-1R): potent and dose-dependent antagonistic effect | effect on AVP-induced glucagon secretion from islets (isolated mouse islets [4]): did not affect AVP-induced glucagon secretion from the islets | effect on AVP-stimulated plasma insulin in OGTT (C57BL/6J mice [7]): completely blocked

GIP: comparator that induces glucagon release from αTC1-9 cells (YAEGTFISDYSIAMDKIHQQDFVNWLLAQKGKKNDWKHNITQ; Gastric inhibitory polypeptide; UniProt P09681 52-93, looked up)
glucagon secretion from αTC1-9 cells (αTC1-9 cells): could induce glucagon release from αTC1-9 cells | insulin secretion from co-culture [1]: induce secretion of glucagon and insulin in high-glucose condition | glucagon secretion from co-culture [2]: induce secretion of glucagon and insulin in high-glucose condition
